Assay results as given in patent US20100173018A1, “Microbicidal Compositions Including Activated Nitrogenous Compound and 1,4-Bis(Bromoacetoxy)-2-Butene, and Methods Of Using The Same” (BUCKMAN LABORATORIES INTERNATIONAL, INC., priority 2009, published 2010).
Entries after “also recorded” stand apart in the source; their conditions may differ.

Legend:
[1] = cited from earlier work
[2] = system: Enterobacter aerogenes (ATCC 13048); assay: Evaluation of bactericidal activity (MIC, Bactometer impedance) with checkerboard synergy evaluation; format: cell-based; conditions: value <1 denotes synergistic activity
Experimental: A. Evaluation of Bactericidal Activity. This test method provides a technique for testing compounds for their effectiveness to control bacterial growth. MIC values represent the Minimum Inhibitory Concentration, defined as the lowest level of compound required to produce a 90% kill of a given organism.
Cell suspension from an 18 to 24 hour bacterial culture of Staphylococcus aureus (ATCC 6538) or Bacillus subtilis (ATCC 6633) or Enterobacter aerogenes (ATCC 13048) to attain a desired cell concentration. Using a McFarland nephelometer barium sulfate standard or some other suitable method, adjust the concentration of the bacterial suspension so that a final concentration of between 1×10^4 and 1×10^5 cells per ml is achieved when 100 μl of the inoculum is added to 5 ml of basal salts substrate. […]
• Bacterial growth in the tubes is measured by monitoring impedance levels on the Bactometer. • Dispense 1 ml aliquots of Modified WILKINS Chalgren Broth (Bactometer Media) into Bactometer wells; add 25 μl of treatment from the incubated tubes. […]
Synergy was measured by checkerboards dilutions (Yan and Hancock, 2001), in which one compound is diluted along the rows of test tubes and the other is diluted along the columns. […] The result is expressed as the Fractional Inhibitory Concentration Index (FIC), calculated as follows: […]

[3] = system: white water (ww) sample with a sulfite content of 12.8 ppm; assay: Synergism in the presence of sulfite: ATP measurement in white water, percent inhibition; format: cell-based; conditions: 10 min; BBAB 80 ppm active alone; ATP at 10 min; sulfite 12.8 ppm
Experimental: Synergism in the presence of sulfite. The effectiveness of the actives and the blend were evaluated in a white water (ww) sample with a sulfite content of 12.8 ppm. ATP measurements were performed in duplicate and percent inhibition calculated as a measure of antimicrobial efficacy. The raw data was converted to percent inhibition with use of the following formulation: % Inhibition=[(u−t)/u]×100 where: u=ATP value of untreated ww at time10 min t=ATP value of treated ww at time10 min.

[4] = system: filamentous bacteria isolate from a paper mill slime deposit (Flectobacillus species); assay: Synergy evaluation against filamentous bacteria (checkerboard, CFU on agar); format: cell-based
Experimental: Synergy evaluation against filamentous bacteria. The checkerboard method was used to determine the Fractional Inhibitory Index (FIC) as a predictor of synergy between Activated N-Compound and Busan 1210 (BBAB) against a pure isolate of filamentous bacteria cultured from a paper mill slime deposit. The isolate was identified by 16 S ribosomal RNA sequencing technique. Gene assembly and data analysis was performed using MicroSeq data analysis and identification software; the isolate was identified as a Flectobacillus species. Modified Basal Salts Buffer was inoculated with a suspension of the bacterial isolate to yield a final concentration of 1×10^5 cells per ml. Using a delay between additions, Busan 1210 (BBAB) was added 20 minutes prior to the addition of monochloramine (MCA). After a 3 hours exposure time, the treatments were sub-cultured onto Nutrient and Plate Count Agar (PCA) and incubated at 28° C. for 48 hours. The plates were examined for colony forming units (CFU) and compared to untreated control. [formula] Synergy is expressed as a Fractional inhibitory Concentration Index (FIC), calculated as follows: FIC=[A]/[a]+[B]/[b] where, [A] and [B]=MIC of the compounds A and B when in combination [a] and [b]=MIC of the compounds A and B when alone

| SMILES | solubility in isopropenol, n-butenol, glycerol, ethylene glycol, propylene glycol, and diethylene glycol ([1]; alcohols and glycols as listed) | solubility in dimethylformamide and ethylene glycol monomethylether ([1]; dimethylformamide, ethylene glycol monomethylether) | solubility in water ([1]; water) | [A]/MICA + [B]/MICB (FIC index) [2] | inhibition at 80 ppm [3] | FIC ([4]; FIC=[A]/[a]+[B]/[b]) | MIC of compound when alone ([a] / [b]) ([4]; alone, 3 hours exposure, sub-cultured 28° C. for 48 hours) |
| --- | --- | --- | --- | --- | --- | --- | --- |
| O=C(CBr)OC/C=C\COC(=O)CBr [BBAB, 1,4-bis(bromoacetoxy)-2-butene] | soluble | soluble | extremely low; also recorded: water insoluble | 1.0 | 22.8% |  |  |
| NCl [MCA, monochloramine] |  |  |  |  |  | 1.0 | 10.0(a) |
